Measurements taken from patent publication US5789386A, “Fluorine-containing anthracycline derivatives having hydroxyl groups(s) mono- or di-o-aminoalkanoylated in the sugar moiety thereof” (priority 1995, dated 1998).
In brackets after ≈: the same amount, converted by molar mass. Read-outs that look alike come from different tables or passages of the source.

Columns and labels:
Leukemia L-1210 cells = assay: Antitumor test against leukemia L-1210 in CDF1 mice (T/C, %); format: in vivo, mouse (CDF1); conditions: for antitumor activities (in words): compared with FT-DM, FT-ADM, daunomycin, adriamycin or another test compound; for % Increase in life-span (T/C, %) / mice cured and surviving for 60 days or longer / mice tested: 9 days
Procedure: Thus, to evaluate the antitumor effects of the new compounds according to the first aspect of this invention against experimental tumors in animals, CDF1 mice (four mice per group) were intraperitoneally transplanted with cells of Leukemia L-1210 at an amount of 1×10^5 cells/mouse. Since an elapsed time of 24 hours from the transplantation of the leukemia cells, a test compound according to this invention was administered intraperitoneally to the mice under test for 9 consecutive days once per day. […] While, mice of the control group (the untreated group) were administered with only physiological saline after the transplantation of the L-1210 cells. During the observation period, the numbers of the surviving mice in the treated group and in the control group were counted, and the mean survival days of mice in the treated group and in the control group were then calculated. From the mean survival day (C) of the untreated mice of the control group and the mean survival day (T) of the treated mice of the treated group, there were evaluated percentages (%) of the increase in the life-span of the treated mice, as T/C %. For a comparison purpose, 7-O-(2,6-dideoxy-2-fluoro-α-L-talopyranosyl)daunomycinone (abbreviation: FT-DM); 7-O-(2,6-dideoxy-2-fluoro-α-L-talopyranosyl)adriamycinone(abbreviation: FT-ADM); and adriamycin were also tested in the same manner as above. Incidentally, the mean survival day of mice of the control group (the untreated group) was amounting to 8 to 9 days, and the mean survival day of mice of the comparative groups having received the administration of adriamycin was varying dependently on the dosage of adriamycin.
Notes; Asterisks (*) indicate that development of toxicity such as
toxicityrelated death or a body weight loss was observed on the
corresponding mice tested.

[1] = tested on: adriamycin-resistant P388 cells (P388/ADR); assay: In vitro growth inhibition of adriamycin-resistant P388 cells (P388/ADR), 72 hours; format: cell-based; conditions: Mus musculus, 72 hours, test compounds as trifluoroacetate, read-out: IC50
[2] = tested on: mouse leukemia, P388 cells; assay: In vitro growth inhibition of P388 cells, 72 hours; format: cell-based
[3] = 0.3 mg/kg/day i.p., ">" = at least one of four mice survived 60 days or longer
[4] = 0.6 mg/kg/day i.p., ">" = at least one of four mice survived 60 days or longer
[5] = 1.25 mg/kg/day i.p., ">" = at least one of four mice survived 60 days or longer
[6] = 2.5 mg/kg/day i.p., ">" = at least one of four mice survived 60 days or longer
[7] = 5 mg/kg/day i.p., ">" = at least one of four mice survived 60 days or longer
[8] = P388, 72 hours, test compounds as trifluoroacetate, read-out: IC50

SMILES | IC50 [1] [mg/L] | IC50 ([2]; P388, 72 h) [mg/L] | % Increase in life-span (T/C, %) (Leukemia L-1210 cells; 0.15 mg/kg/day i.p.) [%] | % Increase in life-span (T/C, %) (Leukemia L-1210 cells; [4]) [%] | % Increase in life-span (T/C, %) (Leukemia L-1210 cells; [5]) [%] | % Increase in life-span (T/C, %) (Leukemia L-1210 cells; [6]) [%] | % Increase in life-span (T/C, %) (Leukemia L-1210 cells; [7]) [%] | IC50 [2, 8] [mg/L] | further results
COc1cccc2c1C(=O)c1c(O)c3c(c(O)c1C2=O)C[C@@](O)(C(=O)CO)C[C@@H]3O[C@@H]1O[C@@H](C)[C@@H](O)[C@@H](OC(=O)[C@H](C)N)[C@H]1F [Compound 8b, 7-O-(3-O-L-alanyl-2,6-dideoxy-2-fluoro-α-L-talopyranosyl)adriamycinone] | – | – | – | – | – | – | – | – | antitumor activities (in words) (Leukemia L-1210 cells): remarkably improved antitumor activities in comparison with those of the parent compound, FT-ADM
COc1cccc2c1C(=O)c1c(O)c3c(c(O)c1C2=O)C[C@@](O)(C(=O)CO)C[C@@H]3O[C@@H]1O[C@@H](C)[C@@H](OC(=O)[C@H](C)N)[C@@H](O)[C@H]1F [Compound 9b, 7-O-(4-O-L-alanyl-2,6-dideoxy-2-fluoro-α-L-talopyranosyl)adriamycinone] | – | – | – | – | – | – | – | – | antitumor activities (in words) (Leukemia L-1210 cells): remarkably improved antitumor activities in comparison with those of the parent compound, FT-ADM
COc1cccc2c1C(=O)c1c(O)c3c(c(O)c1C2=O)C[C@@](O)(C(=O)CO)C[C@@H]3O[C@@H]1O[C@@H](C)[C@@H](OC(=O)CN)[C@@H](OC(=O)CN)[C@H]1F [Compound 11a, 7-O-(2,6-dideoxy-2-fluoro-3,4-di-O-glycyl-α-L-talopyranosyl)adriamycinone] | 0.32 (≈ 0.473 µM) | < 0.0098 | 111 | 170 | 321 | > 430 | > 518 | – | % Increase in life-span (T/C, %) (Leukemia L-1210 cells; [3]): 125%; mice cured and surviving for 60 days or longer / mice tested (Leukemia L-1210 cells; 2.5 mg/kg/day i.p.): 1/4; mice cured and surviving for 60 days or longer / mice tested (Leukemia L-1210 cells; 5 mg/kg/day i.p.): 2/4
COc1cccc2c1C(=O)c1c(O)c3c(c(O)c1C2=O)C[C@@](O)(C(=O)CO)C[C@@H]3O[C@@H]1O[C@@H](C)[C@@H](OC(=O)[C@H](C)N)[C@@H](OC(=O)[C@H](C)N)[C@H]1F [Compound 11b, 7-O-(3,4-di-O-L-alanyl-2,6-dideoxy-2-fluoro-α-L-talopyranosyl)adriamycinone] | 0.31 (≈ 0.44 µM) | < 0.0098 | 115 | > 361 | > 407 | > 666 | > 502 | – | % Increase in life-span (T/C, %) (Leukemia L-1210 cells; [3]): 144%; mice cured and surviving for 60 days or longer / mice tested (Leukemia L-1210 cells; 0.6 mg/kg/day i.p.): 1/4; mice cured and surviving for 60 days or longer / mice tested (Leukemia L-1210 cells; 1.25 mg/kg/day i.p.): 1/4; mice cured and surviving for 60 days or longer / mice tested (Leukemia L-1210 cells; 2.5 mg/kg/day i.p.): 2/4; mice cured and surviving for 60 days or longer / mice tested (Leukemia L-1210 cells; 5 mg/kg/day i.p.): 2/4; antitumor activities (in words) (Leukemia L-1210 cells): a little inferior to the antitumor activities of said mixture of Compounds 8b and 9b but are yet considerably high antiumor activities
COc1cccc2c1C(=O)c1c(O)c3c(c(O)c1C2=O)C[C@@](O)(C(=O)CO)C[C@@H]3O[C@@H]1O[C@@H](C)[C@@H](OC(=O)[C@@H](N)Cc2ccccc2)[C@@H](OC(=O)[C@@H](N)Cc2ccccc2)[C@H]1F [Compound 11c, 7-O-(2,6-dideoxy-2-fluoro-3,4-di-O-L-phenylalanyl-α-L-talopyranosyl)adriamycinone] | 0.14 (≈ 0.163 µM) | – | 123 | 143 | 170 | 177 | 253 | 0.026 (≈ 0.0303 µM) | % Increase in life-span (T/C, %) (Leukemia L-1210 cells; [3]): 130%
COc1cccc2c1C(=O)c1c(O)c3c(c(O)c1C2=O)C[C@@](O)(C(=O)CO)C[C@@H]3O[C@@H]1O[C@@H](C)[C@@H](OC(=O)[C@@H](N)C(C)C)[C@@H](OC(=O)[C@@H](N)C(C)C)[C@H]1F [Compound 11d, 7-O-(2,6-dideoxy-2-fluoro-3,4-di-O-L-valyl-α-L-talopyranosyl)adriamycinone] | 0.32 (≈ 0.421 µM) | < 0.0098 | – | – | – | – | – | – | –
COc1cccc2c1C(=O)c1c(O)c3c(c(O)c1C2=O)C[C@@](O)(C(=O)CO)C[C@@H]3O[C@@H]1O[C@@H](C)[C@@H](OC(=O)[C@@H](N)CC(C)C)[C@@H](OC(=O)[C@@H](N)CC(C)C)[C@H]1F [Compound 11e, 7-O-(2,6-dideoxy-2-fluoro-3,4-di-O-L-leucyl-α-L-talopyranosyl)adriamycinone] | 0.27 (≈ 0.342 µM) | – | – | – | – | – | – | 0.032 (≈ 0.0406 µM) | –
COc1cccc2c1C(=O)c1c(O)c3c(c(O)c1C2=O)C[C@@](O)(C(=O)CO)C[C@@H]3O[C@@H]1O[C@@H](C(F)(F)F)[C@@H](OC(=O)CN)[C@@H](OC(=O)CN)[C@H]1F [Compound 18, 7-O-(2,6-dideoxy-2,6,6,6-tetrafluoro-3,4-di-O-glycyl-α-L-talopyranosyl)adriamycinone] | 0.28 (≈ 0.383 µM) | – | – | – | – | – | – | < 0.0098 | –
COc1cccc2c1C(=O)c1c(O)c3c(c(O)c1C2=O)C[C@@](O)(C(=O)CO)C[C@@H]3O[C@H]1C[C@H](OC(=O)CN)[C@H](OC(=O)CN)[C@H](C(F)(F)F)O1 [Compound 25, 7-O-(2,6-dideoxy-6,6,6-trifluoro-3,4-di-O-glycyl-α-L-lyxo-hexopryranosyl)adriamycinone] | – | < 0.0098 | – | – | – | – | – | – | –
COc1cccc2c1C(=O)c1c(O)c3c(c(O)c1C2=O)C[C@@](O)(C(=O)CO)C[C@@H]3O[C@@H]1O[C@@H](C(F)(F)F)[C@@H](OC(=O)[C@H](C)N)[C@@H](OC(=O)[C@H](C)N)[C@H]1F [Compound 31, 7-O-(3,4-di-O-L-alanyl-2,6-dideoxy-2,6,6,6-tetrafluoro-α-L-talopyranosyl)adriamycinone] | 0.14 (≈ 0.185 µM) | – | – | – | – | – | – | < 0.0098 | –
COc1cccc2c1C(=O)c1c(O)c3c(c(O)c1C2=O)C[C@@](O)(C(=O)CO)C[C@@H]3O[C@@H]1O[C@@H](C(F)(F)F)[C@@H](OC(=O)[C@@H](N)Cc2ccccc2)[C@@H](OC(=O)[C@@H](N)Cc2ccccc2)[C@H]1F [Compound 37, 7-O-(2,6-dideoxy-2,6,6,6-tetrafuluoro-3,4-di-O-L-phenylalanyl-α-L-talopyranosyl)adriamycinone] | 0.17 (≈ 0.187 µM) | – | – | – | – | – | – | 0.016 (≈ 0.0176 µM) | –
COc1cccc2c1C(=O)c1c(O)c3c(c(O)c1C2=O)C[C@@](O)(C(=O)CO)C[C@@H]3O[C@H]1C[C@H](OC(=O)[C@H](C)N)[C@H](OC(=O)[C@H](C)N)[C@H](C(F)(F)F)O1 [Compound 43, 7-O-(3,4-di-O-L-alanyl-2,6-dideoxy-6,6,6-trifluoro-α-L-lyxo-hexopyranosyl)adriamycinone] | 0.22 (≈ 0.297 µM) | < 0.0098 | – | – | – | – | – | – | –
COc1cccc2c1C(=O)c1c(O)c3c(c(O)c1C2=O)C[C@@](O)(C(=O)CO)C[C@@H]3O[C@H]1C[C@H](OC(=O)[C@@H](N)Cc2ccccc2)[C@H](OC(=O)[C@@H](N)Cc2ccccc2)[C@H](C(F)(F)F)O1 [Compound 49, 7-O-(2,6-dideoxy-6,6,6-trifluoro-3,4-di-O-L-phenylalanyl-α-L-lyxo-hexopyranosyl)adriamycinone] | 0.28 (≈ 0.314 µM) | – | – | – | – | – | – | 0.02 (≈ 0.0224 µM) | –
COc1cccc2c1C(=O)c1c(O)c3c(c(O)c1C2=O)C[C@@](O)(C(=O)CO)C[C@@H]3O[C@@H]1O[C@@H](C)[C@@H](O)[C@@H](O)[C@H]1F [FT-ADM, 7-O-(2,6-dideoxy-2-fluoro-α-L-talopyranosyl)adriamycinone, reference compound] | – | – | 127 | 185 | 275 | > 352 | > 740 | – | % Increase in life-span (T/C, %) (Leukemia L-1210 cells; [3]): 182%; mice cured and surviving for 60 days or longer / mice tested (Leukemia L-1210 cells; 2.5 mg/kg/day i.p.): 1/4; mice cured and surviving for 60 days or longer / mice tested (Leukemia L-1210 cells; 5 mg/kg/day i.p.): 4/4
COc1cccc2c1C(=O)c1c(O)c3c(c(O)c1C2=O)C[C@@](O)(C(C)=O)C[C@@H]3O[C@@H]1O[C@@H](C)[C@@H](O)[C@@H](O)[C@H]1F [FT-DM, 7-O-(2,6-dideoxy-2-fluoro-α-L-talopyranosyl)daunomycinone, reference compound] | – | – | 105 | 125 | 171 | 217 | 184 | – | –
